Consider 24 molecules from ChEMBL document CHEMBL5126529, “Drug discovery of histone lysine demethylases (KDMs) inhibitors (progress from 2018 to present)” (Eur J Med Chem, 2022).

Data set [1] concerns the target T1, MAO-B (Homo sapiens, UniProt P27338).
T1 sequence (P27338 whole entry): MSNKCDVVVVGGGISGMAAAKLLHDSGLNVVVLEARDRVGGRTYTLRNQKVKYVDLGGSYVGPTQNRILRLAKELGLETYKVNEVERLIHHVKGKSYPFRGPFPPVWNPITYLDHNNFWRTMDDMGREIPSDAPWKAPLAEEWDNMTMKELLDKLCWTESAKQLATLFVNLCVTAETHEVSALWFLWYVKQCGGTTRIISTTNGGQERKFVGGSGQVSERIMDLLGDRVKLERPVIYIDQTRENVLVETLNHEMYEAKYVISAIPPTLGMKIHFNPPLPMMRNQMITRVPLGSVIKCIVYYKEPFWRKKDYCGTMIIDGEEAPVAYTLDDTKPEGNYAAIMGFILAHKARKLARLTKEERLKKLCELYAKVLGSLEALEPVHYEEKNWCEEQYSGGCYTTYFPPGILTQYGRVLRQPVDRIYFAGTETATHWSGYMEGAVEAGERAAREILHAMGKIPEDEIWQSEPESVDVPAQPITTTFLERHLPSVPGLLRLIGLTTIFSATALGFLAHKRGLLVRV
Description: Inhibition of recombinant MAO-B (unknown origin) at 10 uM by luminometry relative to control.

Data set [2] has as its target T2, MAO-A (Homo sapiens, UniProt P21397).
T2 sequence (P21397 whole entry): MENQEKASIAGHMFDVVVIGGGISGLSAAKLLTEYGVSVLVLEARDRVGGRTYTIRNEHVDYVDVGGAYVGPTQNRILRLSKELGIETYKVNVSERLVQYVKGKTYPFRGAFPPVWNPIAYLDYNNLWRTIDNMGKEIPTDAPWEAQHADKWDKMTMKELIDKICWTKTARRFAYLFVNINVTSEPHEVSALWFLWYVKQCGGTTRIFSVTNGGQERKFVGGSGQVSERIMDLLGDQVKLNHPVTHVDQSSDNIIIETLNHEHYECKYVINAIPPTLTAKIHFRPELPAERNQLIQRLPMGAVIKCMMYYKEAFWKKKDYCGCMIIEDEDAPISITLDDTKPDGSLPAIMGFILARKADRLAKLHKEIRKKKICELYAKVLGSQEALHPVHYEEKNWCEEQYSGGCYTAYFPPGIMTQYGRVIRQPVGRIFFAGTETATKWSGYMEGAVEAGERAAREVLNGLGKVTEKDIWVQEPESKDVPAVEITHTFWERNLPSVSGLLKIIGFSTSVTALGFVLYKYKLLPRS
The data set is described as follows: Inhibition of recombinant MAO-A (unknown origin) at 10 uM by luminometry relative to control.

Data set [3] addresses T3, Lysine-specific histone demethylase 1A (Homo sapiens, UniProt O60341). Description: Inhibition of recombinant human KDM1A (158 to 852 residues) using H3K4Me2 peptide as substrate preincubated for 15 mins followed by substrate addition measured after 60 mins by AlphaLISA assay.
For data set [4], the target named is T2, MAO-A. Description: Inhibition of recombinant MAO-A (unknown origin) using luciferin substrate at 10 uM preincubated for 15 mins followed by substrate addition measured after 1 hr by luciferase based assay relative to control. The settings on record: probe luciferin substrate, time 75 min.
Data set [5] has as its target T1, MAO-B. Description: Inhibition of recombinant MAO-B (unknown origin) using luciferin substrate at 10 uM preincubated for 15 mins followed by substrate addition measured after 1 hr by luciferase based assay relative to control. Conditions: probe luciferin substrate, time 75 min.
Data set [6] deals with T3, Lysine-specific histone demethylase 1A.
For data set [7], the target named is Lysine-specific demethylase 6B (Homo sapiens, UniProt O15054). Description: Binding affinity to KDM6B (unknown origin) assessed as inhibition constant.
Data set [8] deals with T2, MAO-A. Description: Inhibition of recombinant MAO-A (unknown origin) using luciferin substrate at 100 uM preincubated for 15 mins followed by substrate addition measured after 1 hr by luciferase based assay relative to control. The settings on record: probe luciferin substrate, time 75 min.
For data set [9], the target named is T1, MAO-B. Description: Inhibition of recombinant MAO-B (unknown origin) using luciferin substrate at 100 uM preincubated for 15 mins followed by substrate addition measured after 1 hr by luciferase based assay relative to control. Conditions: probe luciferin substrate, time 75 min.
Data set [10] concerns the target T3, Lysine-specific histone demethylase 1A. Description: Inhibition of KDM1A (unknown origin) by fluorescence based assay.
For data set [11] the target is unchanged. The data set is described as follows: Binding affinity to human KDM1A (172 to 833 residues) assessed as inhibition constant using Lys4-dimethylated H3 peptide as substrate incubated for 30 mins by enzymatic assay.
Data set [12] deals with T4, Amine oxidase [flavin-containing] A (Homo sapiens, UniProt P21397).
T4 sequence (P21397 whole entry): T2 sequence (P21397 whole entry)
The data set is described as follows: Binding affinity to human MAO-A assessed as inhibition constant using tyramine as substrate incubated for 30 mins by enzymatic assay.

The target in data set [13] is T5, Amine oxidase [flavin-containing] B (Homo sapiens, UniProt P27338).
T5 sequence (P27338 whole entry): T1 sequence (P27338 whole entry)
The data set is described as follows: Binding affinity to human MAO-B assessed as inhibition constant using tyramine as substrate incubated for 30 mins by enzymatic assay.

Data set [14] addresses Lysine-specific histone demethylase 2 (Homo sapiens, UniProt Q8NB78). Description: Binding affinity to KDM1B (unknown origin) assessed as inhibition constant using Lys4-dimethylated H3 peptide as substrate incubated for 30 mins by enzymatic assay.
In data set [15] the target is T2, MAO-A. Description: Inhibition of MAO-A (unknown origin) at 10 uM relative to control.
In data set [16] the target is T1, MAO-B. Description: Inhibition of MAO-B (unknown origin) at 10 uM relative to control.
Data set [17] has as its target T5, Amine oxidase [flavin-containing] B.
For data set [18], the target named is Lysine-specific demethylase 5C (Homo sapiens, UniProt P41229). The data set is described as follows: Inhibition of N-terminal FLAG/His-tagged full-length human KDM5C (2 to 1560 residues) expressed in baculovirus infected Sf9 insect cells using peptide substrate at 10 uM incubated for 2 hrs by Alpha Screen assay relative to control.
In data set [19] the target is Probable JmjC domain-containing histone demethylation protein 2C (Homo sapiens, UniProt Q15652). Description: Binding affinity to CM7 sensor chip immobilized partial-length JMJD1C (2274 to 2498 residues) (unknown origin) expressed in Escherichia coli assessed as dissociation constant incubated for 60 secs by SPR analysis.
In data set [20] the target is Lysine-specific demethylase 3B (Homo sapiens, UniProt Q7LBC6). The data set is described as follows: Binding affinity to CM7 sensor chip immobilized full-length KDM3B (unknown origin) expressed in Sf9 insect cells assessed as dissociation constant incubated for 60 secs by SPR analysis.
Data set [21] deals with T3, Lysine-specific histone demethylase 1A. This is another data set of the same source.
Data set [22] has as its target T1, MAO-B. Description: Inhibition of MAO-B (unknown origin) at 100 uM relative to control.
Data set [23] concerns the target T2, MAO-A. Description: Inhibition of MAO-A (unknown origin) at 100 uM relative to control.
The target in data set [24] is Lysine-specific demethylase 4A (Homo sapiens) (UniProt O75164). Description: Inhibition of recombinant KDM4A (unknown origin) assessed as residual activity using H3K9me3 peptide as substrate incubated for 60 mins by fluorescence based assay relative to control.
For data set [25], the target named is T3, Lysine-specific histone demethylase 1A. Description: Inhibition of recombinant human KDM1A using fluorogenic substrate incubated for 30 mins followed by substrate addition measured after 10 mins by fluorescence based assay.
The target is the same in data set [26]. Description: Inhibition of recombinant human KMD1A (172 to 852 residues) using Bio-H3K4me2 peptide as substrate incubated for 1 hr by Lance ultra TR-FRET assay.
For data set [27], the target named is T5, Amine oxidase [flavin-containing] B. The data set is described as follows: Inhibition of MAO-B (unknown origin) by luminescence based assay.
The target of data set [28] is T4, Amine oxidase [flavin-containing] A. The data set is described as follows: Inhibition of MAO-A (unknown origin) by luminescence based assay.
The target is the same in data set [29]. Description: Inhibition of MAO-A (unknown origin) by luminometry.
For another data set, the system named is KE-37. Description: cells. Conditions: Homo sapiens.
The next data set concerns MOLT-4. The data set is described as follows: cells. The settings on record: Homo sapiens.
The subject of the next data set is P30-OHK. The data set is described as follows: cells. Conditions: Homo sapiens.
In the next data set the test system is HAL-01. Description: cells. Conditions: Homo sapiens.
The next data set deals with LC4-1. The data set is described as follows: cells. The settings on record: Homo sapiens.
For a further data set, the system named is SUP-B15. The data set is described as follows: cells. Conditions: Homo sapiens.

Sequence of Lysine-specific demethylase 3B (Q7LBC6 whole entry): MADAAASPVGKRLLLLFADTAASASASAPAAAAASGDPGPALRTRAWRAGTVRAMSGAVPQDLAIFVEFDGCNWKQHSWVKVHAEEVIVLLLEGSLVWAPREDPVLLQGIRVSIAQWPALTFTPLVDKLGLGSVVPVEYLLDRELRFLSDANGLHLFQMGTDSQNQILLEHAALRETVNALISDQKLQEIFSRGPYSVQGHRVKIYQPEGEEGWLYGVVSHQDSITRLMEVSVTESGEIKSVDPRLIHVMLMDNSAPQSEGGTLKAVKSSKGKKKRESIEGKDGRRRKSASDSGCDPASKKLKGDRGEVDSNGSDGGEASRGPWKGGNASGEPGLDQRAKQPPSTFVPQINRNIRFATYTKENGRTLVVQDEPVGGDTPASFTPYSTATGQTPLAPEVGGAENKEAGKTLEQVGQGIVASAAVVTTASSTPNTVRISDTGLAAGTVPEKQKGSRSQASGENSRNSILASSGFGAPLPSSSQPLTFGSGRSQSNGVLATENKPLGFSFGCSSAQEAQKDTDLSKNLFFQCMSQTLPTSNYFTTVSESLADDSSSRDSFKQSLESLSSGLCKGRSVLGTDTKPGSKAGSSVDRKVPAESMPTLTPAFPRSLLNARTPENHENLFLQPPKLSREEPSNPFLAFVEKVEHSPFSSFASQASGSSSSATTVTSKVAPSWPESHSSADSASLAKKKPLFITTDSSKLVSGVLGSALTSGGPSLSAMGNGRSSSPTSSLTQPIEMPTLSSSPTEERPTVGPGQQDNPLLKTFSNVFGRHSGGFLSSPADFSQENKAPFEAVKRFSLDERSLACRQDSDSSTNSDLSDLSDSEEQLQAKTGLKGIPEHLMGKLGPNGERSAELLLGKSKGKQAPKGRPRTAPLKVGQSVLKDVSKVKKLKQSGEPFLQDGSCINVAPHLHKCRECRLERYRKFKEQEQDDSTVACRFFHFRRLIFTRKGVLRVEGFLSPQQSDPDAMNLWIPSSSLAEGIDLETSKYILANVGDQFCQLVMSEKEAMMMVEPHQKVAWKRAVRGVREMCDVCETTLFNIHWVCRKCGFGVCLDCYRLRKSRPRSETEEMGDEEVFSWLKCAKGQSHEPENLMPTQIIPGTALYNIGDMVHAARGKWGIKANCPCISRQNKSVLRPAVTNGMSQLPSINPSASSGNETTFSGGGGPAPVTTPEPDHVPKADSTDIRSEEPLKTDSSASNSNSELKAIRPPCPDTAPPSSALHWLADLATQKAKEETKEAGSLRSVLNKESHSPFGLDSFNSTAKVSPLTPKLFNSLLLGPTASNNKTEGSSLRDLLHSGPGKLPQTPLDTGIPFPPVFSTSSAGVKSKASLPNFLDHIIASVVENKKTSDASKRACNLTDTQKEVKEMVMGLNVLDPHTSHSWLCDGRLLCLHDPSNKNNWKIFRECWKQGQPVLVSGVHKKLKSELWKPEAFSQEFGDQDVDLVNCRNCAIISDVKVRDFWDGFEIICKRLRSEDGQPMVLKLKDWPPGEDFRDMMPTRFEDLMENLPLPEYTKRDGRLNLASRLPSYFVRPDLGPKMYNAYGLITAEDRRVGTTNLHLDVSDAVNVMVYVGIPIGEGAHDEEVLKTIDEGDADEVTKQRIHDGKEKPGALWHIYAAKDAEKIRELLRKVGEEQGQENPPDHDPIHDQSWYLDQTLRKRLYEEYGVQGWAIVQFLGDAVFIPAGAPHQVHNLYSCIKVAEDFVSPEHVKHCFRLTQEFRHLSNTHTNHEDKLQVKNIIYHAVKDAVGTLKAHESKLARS
Sequence of Probable JmjC domain-containing histone demethylation protein 2C (Q15652 whole entry, the tested form may be a part): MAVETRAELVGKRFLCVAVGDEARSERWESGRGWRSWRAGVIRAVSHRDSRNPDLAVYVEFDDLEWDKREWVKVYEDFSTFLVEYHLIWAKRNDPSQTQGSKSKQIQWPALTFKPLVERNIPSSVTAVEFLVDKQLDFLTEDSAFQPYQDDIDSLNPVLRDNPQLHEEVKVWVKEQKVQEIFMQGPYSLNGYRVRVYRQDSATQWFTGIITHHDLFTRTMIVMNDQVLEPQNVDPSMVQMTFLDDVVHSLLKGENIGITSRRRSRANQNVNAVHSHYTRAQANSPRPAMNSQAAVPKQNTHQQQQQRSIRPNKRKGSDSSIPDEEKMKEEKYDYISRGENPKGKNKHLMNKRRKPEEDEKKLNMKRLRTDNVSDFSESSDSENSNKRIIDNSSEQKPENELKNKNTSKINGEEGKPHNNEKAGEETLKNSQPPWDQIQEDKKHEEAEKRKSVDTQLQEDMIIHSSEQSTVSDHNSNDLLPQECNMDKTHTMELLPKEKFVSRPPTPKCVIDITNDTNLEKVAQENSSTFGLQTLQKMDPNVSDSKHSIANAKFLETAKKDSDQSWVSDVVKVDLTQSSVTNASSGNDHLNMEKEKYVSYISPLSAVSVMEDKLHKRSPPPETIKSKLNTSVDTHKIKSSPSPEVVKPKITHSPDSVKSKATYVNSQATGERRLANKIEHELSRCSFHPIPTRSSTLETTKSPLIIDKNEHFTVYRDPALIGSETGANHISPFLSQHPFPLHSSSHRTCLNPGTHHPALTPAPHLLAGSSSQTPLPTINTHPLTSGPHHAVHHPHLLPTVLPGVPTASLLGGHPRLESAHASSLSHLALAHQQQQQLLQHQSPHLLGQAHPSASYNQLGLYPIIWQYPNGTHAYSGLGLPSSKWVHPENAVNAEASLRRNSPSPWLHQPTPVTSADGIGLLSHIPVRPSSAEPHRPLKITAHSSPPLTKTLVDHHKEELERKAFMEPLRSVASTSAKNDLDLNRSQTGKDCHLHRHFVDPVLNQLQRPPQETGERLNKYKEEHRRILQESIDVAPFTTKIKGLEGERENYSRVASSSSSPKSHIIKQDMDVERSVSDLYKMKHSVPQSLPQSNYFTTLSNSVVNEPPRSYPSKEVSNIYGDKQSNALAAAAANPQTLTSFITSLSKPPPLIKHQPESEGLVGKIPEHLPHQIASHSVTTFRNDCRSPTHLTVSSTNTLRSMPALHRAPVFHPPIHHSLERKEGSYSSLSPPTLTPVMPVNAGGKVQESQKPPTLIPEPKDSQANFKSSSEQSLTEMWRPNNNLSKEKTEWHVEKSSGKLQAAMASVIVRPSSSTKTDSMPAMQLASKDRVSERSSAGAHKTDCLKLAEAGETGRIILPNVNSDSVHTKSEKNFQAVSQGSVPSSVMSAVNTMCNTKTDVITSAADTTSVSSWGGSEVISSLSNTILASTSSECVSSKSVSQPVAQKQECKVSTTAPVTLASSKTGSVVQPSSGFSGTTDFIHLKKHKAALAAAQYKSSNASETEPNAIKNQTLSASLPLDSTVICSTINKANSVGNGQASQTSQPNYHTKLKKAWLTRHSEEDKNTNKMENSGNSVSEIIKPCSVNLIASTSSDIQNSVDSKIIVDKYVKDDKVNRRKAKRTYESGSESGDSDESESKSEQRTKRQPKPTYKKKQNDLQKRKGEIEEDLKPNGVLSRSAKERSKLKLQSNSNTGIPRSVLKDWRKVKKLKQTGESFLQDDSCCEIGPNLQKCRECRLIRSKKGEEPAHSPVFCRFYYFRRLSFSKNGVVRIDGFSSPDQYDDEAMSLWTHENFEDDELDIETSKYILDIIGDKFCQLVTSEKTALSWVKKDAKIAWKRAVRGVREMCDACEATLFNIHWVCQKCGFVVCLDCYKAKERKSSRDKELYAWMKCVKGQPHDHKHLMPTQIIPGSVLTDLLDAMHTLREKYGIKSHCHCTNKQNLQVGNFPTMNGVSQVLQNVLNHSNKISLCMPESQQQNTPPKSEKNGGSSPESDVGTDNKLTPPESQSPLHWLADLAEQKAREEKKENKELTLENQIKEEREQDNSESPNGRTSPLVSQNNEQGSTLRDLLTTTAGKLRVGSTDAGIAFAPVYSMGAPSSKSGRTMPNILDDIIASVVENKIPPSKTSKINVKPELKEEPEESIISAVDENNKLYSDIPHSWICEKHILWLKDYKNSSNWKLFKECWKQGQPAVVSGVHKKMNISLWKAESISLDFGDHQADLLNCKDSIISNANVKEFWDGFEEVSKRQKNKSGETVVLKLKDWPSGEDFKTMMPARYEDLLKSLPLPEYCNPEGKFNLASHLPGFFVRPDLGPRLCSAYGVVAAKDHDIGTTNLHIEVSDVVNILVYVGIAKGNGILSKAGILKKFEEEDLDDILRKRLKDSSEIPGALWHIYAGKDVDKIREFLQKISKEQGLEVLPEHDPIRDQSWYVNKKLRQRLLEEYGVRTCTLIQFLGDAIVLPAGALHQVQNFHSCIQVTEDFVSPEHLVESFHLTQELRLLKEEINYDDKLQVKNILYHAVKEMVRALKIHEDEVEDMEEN
Sequence of Lysine-specific histone demethylase 2 (Q8NB78 whole entry): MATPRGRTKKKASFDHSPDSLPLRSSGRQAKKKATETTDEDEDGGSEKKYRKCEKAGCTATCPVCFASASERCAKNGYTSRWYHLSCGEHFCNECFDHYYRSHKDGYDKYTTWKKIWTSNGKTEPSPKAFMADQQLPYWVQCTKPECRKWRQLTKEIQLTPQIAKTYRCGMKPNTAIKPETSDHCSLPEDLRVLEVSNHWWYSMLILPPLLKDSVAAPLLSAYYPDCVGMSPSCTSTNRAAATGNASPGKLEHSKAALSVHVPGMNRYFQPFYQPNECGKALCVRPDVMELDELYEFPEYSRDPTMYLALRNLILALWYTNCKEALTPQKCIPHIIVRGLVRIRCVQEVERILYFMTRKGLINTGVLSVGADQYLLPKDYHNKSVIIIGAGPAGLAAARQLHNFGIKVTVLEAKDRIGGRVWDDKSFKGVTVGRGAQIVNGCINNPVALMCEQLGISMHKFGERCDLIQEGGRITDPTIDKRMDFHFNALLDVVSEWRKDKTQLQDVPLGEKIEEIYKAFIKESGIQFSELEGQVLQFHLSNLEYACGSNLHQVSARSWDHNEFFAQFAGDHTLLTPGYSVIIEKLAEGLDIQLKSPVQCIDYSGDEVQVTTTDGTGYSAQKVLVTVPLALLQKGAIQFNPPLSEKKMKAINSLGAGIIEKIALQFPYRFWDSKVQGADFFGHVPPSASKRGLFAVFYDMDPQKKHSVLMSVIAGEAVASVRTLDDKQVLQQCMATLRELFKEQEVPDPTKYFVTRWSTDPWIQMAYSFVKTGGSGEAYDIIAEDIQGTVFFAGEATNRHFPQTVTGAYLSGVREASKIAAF

With `COc1cc2c(cc1OC)-c1cc3ccc4c(c3c[n+]1CC2)OCO4`, the inhibition at 10 µM was 40% at MAO-B [1] and 70% on MAO-A [2].
Regarding `COCc1cccc(NC(=O)c2cc3ccccc3n2C)c1COc1ccc(OCC2CCNCC2)cc1`, in [3], the IC50 stood at 4 µM.
As to `Oc1ccc(CC2NCCc3cc(O)c(O)cc32)cc1` (centres undefined) [HIGENAMINE], the inhibition at 1 h, 10 µM at MAO-A [4] and on MAO-B [5] was less than 15% each time.
For the molecule `CSCC[C@H](NC(=O)[C@@H](NC(=O)[C@H](CCCNC(=N)N)NC(=O)[C@H](C)N)[C@@H](C)O)C(=O)N[C@@H](CCC(N)=O)C(=O)N[C@H](C(=O)N[C@@H](C)C(=O)N[C@@H](CCCNC(=N)N)C(=O)N[C@@H](CCCCN)C(=O)N[C@@H](CO)C(=O)N[C@H](C(=O)O)[C@@H](C)O)[C@@H](C)O`, in data set [6], binding was put at a Kd of 140 µM.
As to `O=c1c(-c2ccc(O)cc2)coc2c([C@@H]3O[C@H](CO[C@@H]4OC[C@@H](O)[C@H](O)[C@H]4O)[C@@H](O)[C@H](O)[C@H]3O)c(O)ccc12`, in [7], the Ki was determined as 7.46 µM.
For the molecule `Cc1ccc(-c2nc(SCc3cn(CC(=O)NC(=O)Nc4ccccn4)nn3)nc(Nc3cccc(C(F)(F)F)c3)c2C#N)cc1`, the inhibition at 1 h, 100 µM at MAO-A [8] and at MAO-B [9] was less than 5% throughout.
In [10], `O=C(/C=C/c1ccc(O)c2c1[C@H](C(=O)OC(Cc1ccc(O)c(O)c1)C(=O)O)[C@@H](c1ccc(O)c(O)c1)O2)O[C@H](Cc1ccc(O)c(O)c1)C(=O)O` (some centres undefined) yielded an IC50 of 110 nM.
Regarding `CN1CCN(C(=O)NC2CC2c2cc(F)cc(F)c2OCc2ccccc2)CC1` (centres undefined), the Ki in [11] was 370 nM; in [12], more than 250 µM; in [13], more than 250 µM; in data set [14], more than 250 µM.
Regarding `COc1ccc(-c2coc3cc(O)cc(O)c3c2=O)cc1` [BIOCHANIN], the inhibition at 10 µM on MAO-A [15] is 23.5%; against MAO-B [16] it was 36.8%.
Regarding `COc1cc2c(cc1OC)-c1c(C)c3ccc(OC)c(OC)c3c[n+]1CC2` [DEHYDROCORYDALINE], in data set [10], the IC50 is 2440 nM.
Turning to `O=C(c1ccc(OCCN2CCCCC2)cc1)c1c(-c2ccc(O)cc2)sc2cc(O)ccc12` [RALOXIFENE], the IC50 in [17] is more than 200 µM.
As for `C=C[C@]1(C)C[C@@H]2OC(=O)C(C)=C2C[C@H]1C(=C)C` [ISOGERMAFURENOLIDE], the IC50 in data set [10] was 3970 nM.
For the molecule `COC(=O)c1ccnc(-c2cn(CCN(C)CCCCCCCCCCOc3cccc4c3C(=O)N(C3CCC(=O)NC3=O)C4=O)nn2)c1` (centres undefined), the inhibition in data set [18] is 14%.
Regarding `CC(=O)Nc1ccc(S(=O)(=O)N[C@H]2CO[C@H]3[C@@H]2OC[C@@H]3Nc2nccc(-c3ccccc3)n2)cc1`, the Kd in [19] came to 2.7 µM; in [20] it was 0.13 µM.
Taken in the same sequence, the figures for `CC(=O)Nc1ccc(S(=O)(=O)N[C@H]2CO[C@H]3[C@@H]2OC[C@@H]3Nc2nccc(-c3cccc(C(C)(C)C)c3)n2)cc1` were 8.06 µM and 7.79 µM.
Take `CC(=O)Nc1ccc(S(=O)(=O)N[C@H]2CO[C@H]3[C@@H]2OC[C@@H]3Nc2nccc(-c3cccc(F)c3)n2)cc1`: the Kd in [19] was 26.7 µM; in [20], 16.3 µM.
Molecule `NC1CC1c1ccc(NC(=O)c2ccc(-c3ccccc3)cc2)cc1` (centres undefined) registered an IC50 in [21] of 51 nM. Further, the inhibition at 100 µM against MAO-B [22] came to 8%; on MAO-A [23], 2%.
On to `O=C(O)[C@H](O)Cc1ccc(O)c(O)c1`, for which the Ki in [7] is 7.11 µM.
Take `CC(C)(C)OC(=O)NCc1cc2ccccc2[te]1`: in [24], the Activity was found to be 1.79%.
As for `CCCC(=O)NC(c1ccc(N(CC)CC)cc1)c1cc(Cl)c2cccnc2c1O` (centres undefined), the IC50 in data set [21] was 3.9 nM.
With `Cn1c(C(=O)Nc2cccc3c2N(Cc2ccc(OC4CCNCC4)cc2)CCC3)cc2ccccc21`, the IC50 in [25] came to 50 nM.
`CCOC(=O)C(c1cc(OC)c(OC)cc1O)N1CCOCC1` (centres undefined) gave a half-maximal inhibitory concentration (IC50) in data set [21] of 296 nM.
Take `CC1(C)C(N[C@@H]2C[C@H]2c2ccccc2)CCC1N[C@@H]1C[C@H]1c1ccccc1` (some centres undefined): the concentration for half-maximal inhibition (IC50) stood at 4.8 µM in data set [26], 9.41 µM in [27] and 7.29 nM in data set [28].
Consider `CC(C)(C)OC(=O)N1CCN(C(=S)SCC(=O)Nc2ccc(C(=O)/C=C/c3ccccc3F)cc2)CC1`, for which the IC50 was found to be 20 µM in data set [29]; 3.64 µM in the data set on KE-37; 870 nM in the data set with MOLT-4; 3.85 µM in the data set with P30-OHK; 1100 nM in the data set on HAL-01; 2730 nM in the data set with LC4-1. In the data set with SUP-B15, the IC50 worked out at 1870 nM.
